# Experimental data from patent publication US8076352B2, “Administration of carboline derivatives useful in the treatment of cancer and other diseases” (PTC Therapeutics, Inc., priority 2004, dated 2011).
# Test system: hypoxia-inducible endogenous VEGF expression in HeLa cells
# Assay: Hypoxia-inducible endogenous VEGF expression, VEGF ELISA of conditioned media (dose-response EC50)
# Type: cell-based
# Settings: HeLa cells under hypoxic conditions
# In short: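 HeLa cells were cultured 24-48 h under hypoxia (1% O2, 5% CO2, balance N2) with or without compound. Conditioned-media VEGF protein was measured by ELISA against a standard curve. EC50 and CC50 come from percentage-inhibition curves over, e.g., seven concentrations, with maximal inhibition set at 100%.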
row,Structure (SMILES),EC50 [µM]
1,O=[N+](O)c1ccc(C2NCCc3c2[nH]c2ccc(Cl)cc32)cc1 (stereo not shown) [Compound 185],0.2 to 1

# Same assay, conditions: HeLa cells, hypoxic conditions (1% O2)
row,Structure (SMILES),EC50 [µM]
1,Cc1ccc(C2c3[nH]c4ccc(Br)cc4c3CCN2C(=O)Oc2ccc(F)cc2)cc1 (stereo not shown) [Compound 403],< 0.008

# Same assay, conditions: Homo sapiens, HeLa cells under hypoxic conditions
row,Structure (SMILES),EC50 [µM]
1,CN(C)c1ncc(C2c3[nH]c4ccc(Br)cc4c3CCN2c2ncccn2)cn1 (stereo not shown) [Compound 394],< 0.008
2,COc1ccc(C2c3[nH]c4ccc(Cl)cc4c3CCN2C(=O)OCCCl)cc1 (stereo not shown) [Compound 61],0.008 to 0.04
3,O=C(Oc1ccc(Cl)cc1)N1CCc2c([nH]c3ccc(Cl)cc23)C1c1ccc2c(c1)OCO2 (stereo not shown) [Compound 349],0.008 to 0.04
4,CCOC(=O)N1CCc2c([nH]c3ccc(Cl)cc23)C1c1cccc([N+](=O)[O-])c1 (stereo not shown) [Compound 139],0.04 to 0.2
5,CCOC(=O)N1CCc2c([nH]c3ccc(Cl)cc23)C1c1ccc(C(C)C)cc1 (stereo not shown) [Compound 14],< 0.008
6,COc1ccc(C2c3[nH]c4ccc(Cl)cc4c3CCN2C(=O)Oc2ccccc2)cc1 (stereo not shown) [Compound 60],0.008 to 0.04
7,CCOC(=O)N1CCc2c([nH]c3ccc(Br)cc23)C1Cc1ccccc1 (stereo not shown) [Compound 211],0.2 to 1
8,O=C(OCCCl)N1CCc2c([nH]c3ccc(Cl)cc23)C1c1cccc(F)c1F (stereo not shown) [Compound 6],< 0.008
9,CCOC(=O)COc1ccc(C2c3[nH]c4ccc(Cl)cc4c3CCN2C(=O)OCC)cc1 (stereo not shown) [Compound 365],0.04 to 0.2
10,CCCOC(=O)N1CCc2c([nH]c3ccc(Cl)cc23)C1c1ccc(OC)cc1 (stereo not shown) [Compound 28],< 0.008
11,COc1cccc(C2c3[nH]c4ccc(Cl)cc4c3CCN2C(=O)OC(C)C)c1 (stereo not shown) [Compound 88],0.008 to 0.04
12,Clc1ccc2[nH]c3c(c2c1)CCNC3c1ccc(-n2ccnc2)cc1 (stereo not shown) [Compound 277],> 1
13,Clc1ccc2[nH]c3c(c2c1)CCN(Cc1ccco1)C3C1CCCCC1 (stereo not shown) [Compound 228],0.2 to 1
14,CCC(=O)N1CCc2c([nH]c3ccc(Cl)cc23)C1c1ccc(OC)cc1 (stereo not shown) [Compound 143],0.04 to 0.2
15,Clc1ccc2[nH]c3c(c2c1)CCN(Cc1ccoc1)C3c1nccs1 (stereo not shown) [Compound 270],> 1
16,COc1cccc(C2NCCc3c2[nH]c2ccc(Cl)cc32)c1 (stereo not shown) [Compound 210],0.2 to 1
17,CCOC(=O)N1CCc2c([nH]c3ccc(Cl)cc23)C1c1ccc2c(c1)OCO2 (stereo not shown) [Compound 113],0.008 to 0.04
18,Clc1ccc2[nH]c3c(c2c1)CCNC3c1cccc(Br)c1 (stereo not shown) [Compound 200],0.2 to 1

row,Structure (SMILES),EC50 [µM]
1,COc1ccc(C2NC(C(=O)Nc3ncc(C)s3)Cc3c2[nH]c2ccc(Br)cc32)cc1 (stereo not shown) [Compound 246],> 1
2,Fc1cc(F)cc(C2NCCc3c2[nH]c2ccc(Br)cc32)c1 (stereo not shown) [Compound 155],0.04 to 0.2
3,COc1ccc(C2c3[nH]c4ccc(Cl)cc4c3CCN2C(=O)NCCCl)cc1 (stereo not shown) [Compound 217],0.2 to 1
4,COc1ccc(C2c3[nH]c4ccccc4c3CCN2C(=O)Nc2ccc(C(C)C)cc2)cc1 (stereo not shown) [Compound 304],> 1
5,COCCOC(=O)N1CCc2c([nH]c3ccc(Cl)cc23)C1c1ccc(OCCCn2ccnc2)cc1 (stereo not shown) [Compound 385],0.008 to 0.04
6,O=[N+]([O-])c1cccc(C2NCCc3c2[nH]c2ccc(Cl)cc32)c1 (stereo not shown) [Compound 239],> 1
7,Fc1ccc2[nH]c3c(c2c1)CCNC3c1cccc(Cl)c1 (stereo not shown) [Compound 253],> 1
8,Oc1c(F)cccc1C1NCCc2c1[nH]c1ccc(Br)cc21 (stereo not shown) [Compound 380],> 1
9,CCNC(=O)N1CCc2c([nH]c3ccccc23)C1c1ccc(OC)cc1 (stereo not shown) [Compound 307],> 1
10,COC(=O)CCC(=O)N1CCc2c([nH]c3ccc(Cl)cc23)C1c1ccc(OC)cc1 (stereo not shown) [Compound 369],0.2 to 1
11,O=C(Oc1ccccc1)N1CCc2c([nH]c3ccc(Cl)cc23)C1c1ccccc1 (stereo not shown) [Compound 121],0.008 to 0.04
12,CCN(CC)C(=O)N1CCc2c([nH]c3ccc(Cl)cc23)C1c1ccc(OC)cc1 (stereo not shown) [Compound 339],> 1
13,COC(=O)N1CCc2c([nH]c3ccc(Cl)cc23)C1c1ccc(C(C)C)cc1 (stereo not shown) [Compound 34],< 0.008
14,CC(C)Oc1ccc(C2NCCc3c2[nH]c2ccc(Cl)cc32)cc1 (stereo not shown) [Compound 224],0.2 to 1
15,COC(=O)c1ccc(C2c3[nH]c4ccc(Cl)cc4c3CCN2C(=O)Oc2ccc(F)cc2)cc1 (stereo not shown) [Compound 395],< 0.008
16,COc1ccc(C2c3[nH]c4ccccc4c3CCN2C(=S)Nc2cccc(F)c2)cc1 (stereo not shown) [Compound 308],> 1
17,Clc1cccc(C2NCCc3c2[nH]c2ccc(Cl)cc32)c1 (stereo not shown) [Compound 198],0.2 to 1
18,CCOC(=O)N1CCc2c([nH]c3ccc(Br)cc23)C1c1cnc(SC)nc1 (stereo not shown) [Compound 393],< 0.008

# Same assay, conditions: Homo sapiens, HeLa cells, hypoxic conditions (1% O2)
row,Structure (SMILES),EC50 [µM]
1,COc1ccc(C2c3[nH]c4ccc(Cl)cc4c3CCN2C(=O)Oc2ccc(F)cc2)cc1 (stereo not shown) [Compound 401],< 0.008
2,O=C(Oc1ccccc1)N1CCc2c([nH]c3ccc(Cl)cc23)C1c1ccc(OCCCCl)cc1 (stereo not shown) [Compound 710],< 0.008
3,O=C(Oc1ccccc1Cl)N1CCc2c([nH]c3ccc(Cl)cc23)C1c1ccc(C(F)(F)F)cc1 (stereo not shown) [Compound 594],0.04 to 0.2
4,COC(=O)c1ccc(C2c3[nH]c4ccc(Cl)cc4c3CCN2C(=O)Oc2ccc(Cl)cc2)cc1 (stereo not shown) [Compound 580],< 0.008
5,COCCOCCOc1ccc(C2c3[nH]c4ccc(Cl)cc4c3CCN2C(=O)Oc2ccc(Br)cc2)cc1 (stereo not shown) [Compound 680],< 0.008
6,CC(C)NCCCCCCOc1ccc(C2c3[nH]c4ccc(Cl)cc4c3CCN2C(=O)Oc2ccc(Cl)cc2)cc1 (stereo not shown) [Compound 784],< 0.008
7,CC(CC1NCCc2c1[nH]c1ccc(Cl)cc21)c1ccccc1 (stereo not shown) [Compound 532],0.2 to 1
8,O=C(Oc1ccc(Cl)cc1)N1CCc2c([nH]c3ccc(Cl)cc23)C1c1ccc(OCCO)cc1 (stereo not shown) [Compound 571],0.2 to 1
9,CCOC(=O)N1CCc2c([nH]c3ccc(Br)cc23)C1c1ccc(C(=O)NCCO)cc1 (stereo not shown) [Compound 490],0.04 to 0.2
10,COC(=O)C(=O)N1CCc2c([nH]c3ccc(Cl)cc23)C1c1ccc(OC)cc1 (stereo not shown) [Compound 485],0.04 to 0.2
11,CCOC(=O)N1CCc2c([nH]c3ccc(Br)cc23)C1c1ccc(CO)cc1 (stereo not shown) [Compound 430],< 0.008
12,C=CCOc1ccc(C2c3[nH]c4ccc(Cl)cc4c3CCN2C(=O)Oc2ccccc2)cc1 (stereo not shown) [Compound 413],< 0.008
13,O=C(Oc1ccc(Cl)cc1)N1CCc2c([nH]c3ccc(Cl)cc23)C1c1ccc(OCCCCCCNCCCn2ccnc2)cc1 (stereo not shown) [Compound 789],0.04 to 0.2

# Same assay, conditions: Homo sapiens, HeLa cells, hypoxic conditions (1% O2, 5% CO2)
row,Structure (SMILES),EC50 [µM]
1,O=C(Oc1ccccc1)N1CCc2c([nH]c3ccc(Cl)cc23)C1c1ccc(OCCCn2cncn2)cc1 (stereo not shown) [Compound 891],< 0.008
2,O=C(Oc1ccc(F)cc1)N1CCc2c([nH]c3ccc(Cl)cc23)C1c1ccc(OCCn2ccnc2)cc1 (stereo not shown) [Compound 835],0.04 to 0.2
3,CN1CCCC(COc2ccc(C3c4[nH]c5ccc(Cl)cc5c4CCN3C(=O)Oc3ccc(F)cc3)cc2)C1 (stereo not shown) [Compound 932],< 0.008
4,O=C(Oc1ccc(Cl)cc1)N1CCc2c([nH]c3ccc(Cl)cc23)C1c1ccc(OCCn2cncn2)cc1 (stereo not shown) [Compound 840],0.008 to 0.04
5,CCS(=O)(=O)Nc1ccc(C2c3[nH]c4ccc(Cl)cc4c3CCN2C(=O)Oc2ccc(Cl)cc2)cc1 (stereo not shown) [Compound 958],0.008 to 0.04
6,O=C(Oc1ccc(F)cc1)N1CCc2c([nH]c3ccc(Cl)cc23)C1c1ccc(OCC(O)Cn2ccnn2)cc1 (stereo not shown) [Compound 941],< 0.008
7,O=C(Oc1ccc(F)cc1)N1CCc2c([nH]c3ccc(Cl)cc23)C1c1ccc(OCC(O)Cn2ccnc2)cc1 (stereo not shown) [Compound 922],< 0.008
